Assay results as given in PubChem BioAssay (NCI).
“And” between values parts separate entries of the source, which are not always exact repeats. Equal values may be shown once.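 All cell lines were grown in 96-well plates and treated with compound for 48 hours. GI50 = concentration required for 50% inhibition of growth. TGI: total growth inhibition.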

Columns and labels:
Assay in all cases: NCI anticancer screen, dose series, 48 h
SK-MEL-5 melanoma = system: SK-MEL-5 melanoma
KM12 colon = system: KM12 colon
MDA-MB-231 breast = system: MDA-MB-231 breast
HCT-116 colon = system: HCT-116 colon
HOP-62 NSCLC = system: HOP-62 NSCLC
HCT-15 colon = system: HCT-15 colon
MOLT-4 leukemia = system: MOLT-4 leukemia
UACC-257 melanoma = system: UACC-257 melanoma
NCI-H522 lung = system: NCI-H522 lung
PC-3 prostate = system: PC-3 prostate

Structure (SMILES)	GI50 (SK-MEL-5 melanoma)	TGI (SK-MEL-5 melanoma)	GI50 (KM12 colon)	TGI (KM12 colon)	GI50 (MDA-MB-231 breast)	TGI (MDA-MB-231 breast)	GI50 (HCT-116 colon)	TGI (HCT-116 colon)	GI50 (HOP-62 NSCLC)	TGI (HOP-62 NSCLC)	GI50 (HCT-15 colon)	TGI (HCT-15 colon)	GI50 (MOLT-4 leukemia)	TGI (MOLT-4 leukemia)	GI50 (UACC-257 melanoma)	TGI (UACC-257 melanoma)	GI50 (NCI-H522 lung)	TGI (NCI-H522 lung)	GI50 (PC-3 prostate)	TGI (PC-3 prostate)
COc1cc(C2NC(=O)C(C#N)=C(Nc3cccc(C)c3)S2)ccc1O (stereo not drawn)	> 100 µM	> 100 µM	> 100 µM	> 100 µM	> 100 µM	> 100 µM	> 100 µM	> 100 µM	> 100 µM	> 100 µM	> 100 µM	> 100 µM	> 100 µM	> 100 µM	> 100 µM	> 100 µM	> 100 µM	> 100 µM	> 100 µM	> 100 µM
COC(=O)c1cc2cc(/C=C3/SC(=S)N(N(C(C)=O)C(C)=O)C3=O)oc2n1Cc1ccccc1	25.7 µM	62.7 µM	27.8 µM	> 100 µM	20.6 µM	50.4 µM	–	–	2.67 µM	14.1 µM	15 µM	52.1 µM	59.9 µM	> 100 µM	25 µM	74.9 µM	19.1 µM	48.6 µM	37.8 µM	> 100 µM
O=C1Cc2cc(CCN3CCNCC3)c(Cl)cc2N1	5.33 µM	> 100 µM	3.96 µM	> 100 µM	3.9 µM	> 100 µM	10 µM	> 100 µM	19.3 µM	> 100 µM	6.23 µM	> 100 µM	> 100 µM	> 100 µM	6.52 µM	> 100 µM	4.86 µM	> 100 µM	98.3 µM	> 100 µM
CN(CCCCCl)P(=O)(OCc1ccc([N+](=O)[O-])o1)OCC1OC(n2cc([N+](=O)[O-])c(=O)[nH]c2=O)CC1O (stereo not drawn)	> 100 µM	> 100 µM	> 100 µM	> 100 µM	> 100 µM	> 100 µM	66.5 µM	> 100 µM	41.2 µM	> 100 µM	> 100 µM	> 100 µM	25.1 µM	> 100 µM	> 100 µM	> 100 µM	> 100 µM	> 100 µM	> 100 µM	> 100 µM
COc1ccc(C(O)c2ccccn2)cc1 (stereo not drawn)	–	> 100 µM	–	> 100 µM	–	> 100 µM	–	> 100 µM	–	> 100 µM	–	> 100 µM	–	> 100 µM	–	> 100 µM	–	> 100 µM	–	> 100 µM
CN1CCN(c2ccc(NC3=CC(=O)c4ncncc4C3=O)cc2)CC1	0.302 µM	0.871 µM	1.67 µM	4.35 µM	0.25 µM	0.766 µM	0.229 µM	0.545 µM	–	–	0.343 µM	1.44 µM	0.289 µM	–	0.177 µM	0.357 µM	0.597 µM	1.72 µM	0.289 µM	1.14 µM
NS(=O)(=O)c1ccc(N=Nc2c[nH]c(=O)c(O)c2)cc1	–	> 100 µM	–	> 100 µM	–	> 100 µM	–	> 100 µM	–	> 100 µM	–	> 100 µM	–	> 100 µM	–	> 100 µM	–	28.6 µM	–	> 100 µM
FC(F)(F)c1cccc(-c2[nH]ncc2-c2nnnn2-c2ccccc2)c1	3.01 µM	10.6 µM	4.08 µM	22.2 µM	3.2 µM	12.7 µM	4.7 µM	19.4 µM	7.88 µM	23.4 µM	3.71 µM	16.3 µM	4.79 µM	28.8 µM	11.4 µM	33.9 µM	4.58 µM	19 µM	6.3 µM	51.2 µM
COC(=O)CC1=C(C)/C(=C/c2[nH]c(-c3ccc[nH]3)cc2OC)N=C1C	0.0461 µM	0.107 µM	0.118 µM	2.12 µM	0.0681 µM	0.994 µM	0.0819 µM	1.16 µM	0.192 µM	1.12 µM	0.0992 µM	0.894 µM	0.17 µM	3.48 µM	0.282 µM	1.12 µM	0.215 µM	1.27 µM	0.21 µM	11.2 µM
COC(=O)c1cc(-c2ccc(S(C)(=O)=O)cc2)[nH]c1N/N=C/c1c(Cl)cccc1Cl	0.427 µM	14.5 µM	0.386 µM	10 µM	1.73 µM	> 100 µM	0.454 µM	> 47.9 µM	0.787 µM	32.9 µM	0.463 µM	> 100 µM	0.514 µM	> 100 µM	2.82 µM	> 100 µM	0.988 µM	–	0.565 µM	> 50 µM
CNc1cc(-c2cccc(OC(F)(F)F)c2)nc2ccc(N3CCCC3)cc12	1.74 µM and 1.65 µM and 1.64 µM	3.12 µM and 3.06 µM and 3.01 µM	1.81 µM and 1.76 µM and 1.89 µM	3.4 µM and 3.35 µM and 3.51 µM	1.72 µM and 1.7 µM and 1.46 µM	3.23 µM and 3.14 µM and 2.95 µM	1.3 µM and 1.79 µM and 1.21 µM	2.58 µM and 3.32 µM and 2.52 µM	1.62 µM and 1.69 µM and 1.72 µM	3.11 µM and 3.16 µM	0.86 µM and 1.16 µM and 1.3 µM	2.35 µM and 2.54 µM and 2.8 µM	2.06 µM and 1.81 µM and 1.56 µM	4.26 µM and 4.18 µM and 3.6 µM	1.89 µM and 1.77 µM and 1.86 µM	3.37 µM and 3.16 µM and 3.34 µM	1.68 µM and 1.65 µM and 1.76 µM	3.33 µM and 3.25 µM and 3.43 µM	1.46 µM and 1.61 µM and 1.5 µM	2.95 µM and 3.1 µM and 3.01 µM
CN(C)c1ccc2[nH]c3c(C(N)=O)cc(=O)c(=O)c=3oc2c1	1.8 µM	3.55 µM	3.33 µM	> 100 µM	1.7 µM	8.67 µM	0.304 µM	1.22 µM	2.42 µM	> 100 µM	0.766 µM	> 100 µM	0.861 µM	8.53 µM	1.77 µM	6.18 µM	0.687 µM	8.24 µM	2.77 µM	> 100 µM
COc1ccc2c(c1)-c1c(c3cc(OC)ccc3n(CCN(C)C)c1=O)C2=O	2.6 µM	8.92 µM	0.304 µM	1.28 µM	1.54 µM	8.07 µM	0.241 µM	6.85 µM	0.676 µM	12.1 µM	0.629 µM	13.1 µM	0.174 µM	0.953 µM	1.3 µM	4.78 µM	0.0843 µM	0.59 µM	1.49 µM	8.88 µM
C=C(C)C(=O)Nc1ccc(-c2c(-c3ccc(Oc4nccc(C)n4)c(F)c3)c3c(N)ncnc3n2C)cc1	2.36 µM	8.21 µM	3.87 µM	17 µM	3.57 µM	22.2 µM	5.05 µM	19.8 µM	4.69 µM	20 µM	3.11 µM	13.5 µM	2.78 µM	> 100 µM	9.27 µM	23.6 µM	3.57 µM	16.1 µM	6.78 µM	67.5 µM
O=C1NC(=NCCc2ccc(Br)cc2)S/C1=C\c1ccc2ncccc2c1	> 21 µM	> 25 µM	24.6 µM	> 25 µM	> 25 µM	> 25 µM	16.7 µM	> 25 µM	> 25 µM	> 25 µM	> 22.3 µM	> 25 µM	19.7 µM	> 25 µM	> 25 µM	> 25 µM	12.9 µM	> 25 µM	> 25 µM	> 25 µM
COc1cc(C(=O)O[C@H](C(=O)NCCCCNC(=O)[C@@H](OC(=O)c2cc(OC)cc3c(C)cccc23)[C@]2(C)CO2)[C@]2(C)CO2)c2cccc(C)c2c1	0.0203 µM	0.233 µM	0.139 µM	0.802 µM	1.85 µM	5.48 µM	–	–	–	0.892 µM	0.104 µM	1.18 µM	< 0.01 µM	0.676 µM	–	0.222 µM	0.0207 µM	10.9 µM	0.114 µM	1.5 µM
Cc1c(C(N)=O)sc2nc(C)n(/N=c3\scc(-c4ccccc4)n3Cc3ccccc3)c(=O)c12	1.81 µM	3.75 µM	3.37 µM	> 100 µM	3.28 µM	8.41 µM	2.13 µM	10.3 µM	2.82 µM	9.47 µM	2.64 µM	> 100 µM	24.6 µM	> 100 µM	3.56 µM	24.3 µM	1.73 µM	7.23 µM	2.15 µM	8.31 µM
CCCCCCCCN=C(NCCCCCCCC)SCc1cccc2ccccc12	1.47 µM	2.8 µM	1.68 µM	3.19 µM	1.14 µM	2.55 µM	0.73 µM	2.01 µM	1.71 µM	3.13 µM	1.19 µM	3.09 µM	1.83 µM	4.19 µM	1.75 µM	3.33 µM	1.38 µM	2.87 µM	1.49 µM	2.89 µM
COc1ccc2c(c1)C(=O)c1c-2n(CCCN(C)C)c(=O)c2cc([N+](=O)[O-])ccc12	< 0.01 µM	< 0.012 µM	0.025 µM	0.556 µM	1.08 µM	2.83 µM	< 0.01 µM	0.21 µM	< 0.01 µM	< 0.0447 µM	0.0239 µM	1.29 µM	< 0.01 µM	0.282 µM	0.227 µM	29.4 µM	< 0.01 µM	0.898 µM	< 0.0278 µM	1.05 µM
COc1ccc(-c2[nH]ncc2Nc2cc(OC)c(OC)c(OC)c2)cc1	1.34 µM	23 µM	0.63 µM	22.7 µM	3.34 µM	> 100 µM	1.04 µM	> 43.2 µM	3.32 µM	> 95.3 µM	0.702 µM	> 100 µM	2.12 µM	63.7 µM	34 µM	> 100 µM	1.98 µM	49.3 µM	3.31 µM	> 100 µM
CC(=O)c1c(C)c2cnc(Nc3ccc(N4CCNCC4)cn3)nc2n(C2CCCC2)c1=O	2.58 µM	9.94 µM	0.623 µM	13.9 µM	9.84 µM	24.9 µM	3.07 µM	16.3 µM	12.8 µM	26.2 µM	4.41 µM	20 µM	0.548 µM	24.9 µM	5.51 µM	20.9 µM	13 µM	27.4 µM	1.74 µM	20.8 µM
COc1ccc2c(c1)/C(=N/OC(C)=O)c1c-2c(OC)nc2ccccc12	> 100 µM	> 100 µM	> 100 µM	> 100 µM	35 µM	> 100 µM	> 100 µM	> 100 µM	83.7 µM	> 100 µM	> 100 µM	> 100 µM	> 100 µM	> 100 µM	> 100 µM	> 100 µM	> 100 µM	> 100 µM	> 100 µM	> 100 µM
CC1=C[C@@H]2c3c(c(O)c(O)c4oc5cc(O)cc(O)c5c(=O)c34)[C@@H](c3cc(O)c(O)c4oc5cc(O)cc(O)c5c(=O)c34)[C@@H]2C(C)(C)C1	2.56 µM	10.5 µM	3.1 µM	12.2 µM	4.19 µM	20.5 µM	2.7 µM	9.85 µM	3 µM	14.5 µM	3.16 µM	12.8 µM	3.38 µM	19.5 µM	9.65 µM	24.5 µM	2.9 µM	12.1 µM	3.33 µM	14 µM
Cc1ccc(-c2nc3sc(C)cn3c2/C=C2\C(=O)Nc3ccc(Cl)cc32)cc1	15.5 µM	30.4 µM	20.6 µM	48.5 µM	4.35 µM	20.1 µM	12.2 µM	24.7 µM	7.21 µM	20.8 µM	17.2 µM	34.4 µM	26.2 µM	82.7 µM	16.6 µM	44.9 µM	15.5 µM	30.1 µM	22.3 µM	54.4 µM
S=C(SSC(=S)N1CCCCC1)N1CCCCC1	4.34 µM	59.8 µM	13.9 µM	29 µM	15.2 µM	41.2 µM	–	–	28.4 µM	> 100 µM	16.5 µM	66.8 µM	17.2 µM	49.5 µM	23.6 µM	82.9 µM	12.2 µM	30.1 µM	12.3 µM	51.4 µM
